# Active and inactive are the calls of the source. No cut-off for these calls is given here.
# Test system: A549
# Experiment: Cytotoxicity against human A549 cells after 48 hrs by MTT assay
# Type: functional, cell-based
# Conditions: A549, 48 h
row,Compound,IC50 [µM]
1,O=C(O)CN1C(=O)/C(=C/c2ccc3c(c2)c2ccccc2n3Cc2ccc(C(F)(F)F)cc2)SC1=S,3.4
2,O=C(O)CN1C(=O)/C(=C/c2ccc3c(c2)c2ccccc2n3Cc2ccc(F)cc2F)SC1=S,22.6
3,O=C(O)CN1C(=O)/C(=C/c2ccc3c(c2)c2ccccc2n3Cc2ccc(F)c(F)c2)SC1=S,12.4
4,O=C(O)CN1C(=O)/C(=C/c2ccc3c(c2)c2ccccc2n3Cc2ccc(Br)cc2F)SC1=S,9.44
5,O=C(O)CN1C(=O)/C(=C/c2ccc3c(c2)c2ccccc2n3Cc2ccc(F)cc2)SC1=S,> 50
6,O=C(O)CN1C(=O)/C(=C/c2ccc3c(c2)c2ccccc2n3Cc2ccc([N+](=O)[O-])cc2)SC1=S,3.94
7,O=C(O)CN1C(=O)/C(=C/c2ccc3c(c2)c2ccccc2n3Cc2ccc(Cl)cc2)SC1=S,16.2
8,O=C(O)CN1C(=O)/C(=C/c2ccc3c(c2)c2ccccc2n3Cc2ccc(Br)cc2)SC1=S,> 50
9,N#Cc1ccc(Cn2c3ccccc3c3cc(/C=C4\SC(=S)N(CC(=O)O)C4=O)ccc32)cc1,2.18
10,Cc1ccc(Cn2c3ccccc3c3cc(/C=C4\SC(=S)N(CC(=O)O)C4=O)ccc32)cc1,> 50
11,O=C(O)CN1C(=O)/C(=C/c2ccc3c(c2)c2ccccc2n3Cc2cccc(F)c2)SC1=S,19.8
12,O=C(O)CN1C(=O)/C(=C/c2ccc3c(c2)c2ccccc2n3Cc2ccccc2F)SC1=S,13.6
13,O=C(O)CN1C(=O)/C(=C/c2ccc3c(c2)c2ccccc2n3Cc2ccccc2)SC1=S,32.2

# Test system: K562
# Experiment: Cytotoxicity against human K562 cells after 48 hrs by MTT assay
# Type: functional, cell-based
# Conditions: K562, 48 h
row,Compound,IC50 [µM]
1,O=C(O)CN1C(=O)/C(=C/c2ccc3c(c2)c2ccccc2n3Cc2ccc(C(F)(F)F)cc2)SC1=S,2.16
2,O=C(O)CN1C(=O)/C(=C/c2ccc3c(c2)c2ccccc2n3Cc2ccc(F)cc2F)SC1=S,12.6
3,O=C(O)CN1C(=O)/C(=C/c2ccc3c(c2)c2ccccc2n3Cc2ccc(F)c(F)c2)SC1=S,7.31
4,O=C(O)CN1C(=O)/C(=C/c2ccc3c(c2)c2ccccc2n3Cc2ccc(Br)cc2F)SC1=S,6.92
5,O=C(O)CN1C(=O)/C(=C/c2ccc3c(c2)c2ccccc2n3Cc2ccc(F)cc2)SC1=S,19.1
6,O=C(O)CN1C(=O)/C(=C/c2ccc3c(c2)c2ccccc2n3Cc2ccc([N+](=O)[O-])cc2)SC1=S,2.7
7,O=C(O)CN1C(=O)/C(=C/c2ccc3c(c2)c2ccccc2n3Cc2ccc(Cl)cc2)SC1=S,13.4
8,O=C(O)CN1C(=O)/C(=C/c2ccc3c(c2)c2ccccc2n3Cc2ccc(Br)cc2)SC1=S,28
9,N#Cc1ccc(Cn2c3ccccc3c3cc(/C=C4\SC(=S)N(CC(=O)O)C4=O)ccc32)cc1,1.85
10,Cc1ccc(Cn2c3ccccc3c3cc(/C=C4\SC(=S)N(CC(=O)O)C4=O)ccc32)cc1,29.6
11,O=C(O)CN1C(=O)/C(=C/c2ccc3c(c2)c2ccccc2n3Cc2cccc(F)c2)SC1=S,12.8
12,O=C(O)CN1C(=O)/C(=C/c2ccc3c(c2)c2ccccc2n3Cc2ccccc2F)SC1=S,11.8
13,O=C(O)CN1C(=O)/C(=C/c2ccc3c(c2)c2ccccc2n3Cc2ccccc2)SC1=S,21.4

# Target: T1, Topoisomerase I (Bos taurus) (UniProt Q2HPH0)
# T1 sequence (whole entry): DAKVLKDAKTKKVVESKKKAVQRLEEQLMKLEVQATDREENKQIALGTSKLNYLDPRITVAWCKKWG
# Experiment: Inhibition of calf thymus topoisomerase-1 assessed as reduction in relaxation of pBR322 plasmid DNA at 100 uM measured after 30 mins by agarose gel electrophoresis
# Conditions: not given
row,Compound,inhibition
1,O=C(O)CN1C(=O)/C(=C/c2ccc3c(c2)c2ccccc2n3Cc2ccc(C(F)(F)F)cc2)SC1=S,inactive
2,O=C(O)CN1C(=O)/C(=C/c2ccc3c(c2)c2ccccc2n3Cc2ccc(F)cc2F)SC1=S,inactive
3,CC[C@@]1(O)C(=O)OCc2c1cc1n(c2=O)Cc2cc3ccccc3nc2-1,Active
4,O=C(O)CN1C(=O)/C(=C/c2ccc3c(c2)c2ccccc2n3Cc2ccc(F)c(F)c2)SC1=S,inactive
5,O=C(O)CN1C(=O)/C(=C/c2ccc3c(c2)c2ccccc2n3Cc2ccc(Br)cc2F)SC1=S,inactive
6,O=C(O)CN1C(=O)/C(=C/c2ccc3c(c2)c2ccccc2n3Cc2ccc(F)cc2)SC1=S,inactive
7,O=C(O)CN1C(=O)/C(=C/c2ccc3c(c2)c2ccccc2n3Cc2ccc([N+](=O)[O-])cc2)SC1=S,inactive
8,O=C(O)CN1C(=O)/C(=C/c2ccc3c(c2)c2ccccc2n3Cc2ccc(Cl)cc2)SC1=S,inactive
9,O=C(O)CN1C(=O)/C(=C/c2ccc3c(c2)c2ccccc2n3Cc2ccc(Br)cc2)SC1=S,inactive
10,N#Cc1ccc(Cn2c3ccccc3c3cc(/C=C4\SC(=S)N(CC(=O)O)C4=O)ccc32)cc1,inactive
11,Cc1ccc(Cn2c3ccccc3c3cc(/C=C4\SC(=S)N(CC(=O)O)C4=O)ccc32)cc1,inactive
12,O=C(O)CN1C(=O)/C(=C/c2ccc3c(c2)c2ccccc2n3Cc2cccc(F)c2)SC1=S,inactive
13,O=C(O)CN1C(=O)/C(=C/c2ccc3c(c2)c2ccccc2n3Cc2ccccc2F)SC1=S,inactive
14,O=C(O)CN1C(=O)/C(=C/c2ccc3c(c2)c2ccccc2n3Cc2ccccc2)SC1=S,inactive

# Target: DNA topoisomerase 2-alpha (Homo sapiens) (UniProt P11388)
# Sequence (P11388 whole entry): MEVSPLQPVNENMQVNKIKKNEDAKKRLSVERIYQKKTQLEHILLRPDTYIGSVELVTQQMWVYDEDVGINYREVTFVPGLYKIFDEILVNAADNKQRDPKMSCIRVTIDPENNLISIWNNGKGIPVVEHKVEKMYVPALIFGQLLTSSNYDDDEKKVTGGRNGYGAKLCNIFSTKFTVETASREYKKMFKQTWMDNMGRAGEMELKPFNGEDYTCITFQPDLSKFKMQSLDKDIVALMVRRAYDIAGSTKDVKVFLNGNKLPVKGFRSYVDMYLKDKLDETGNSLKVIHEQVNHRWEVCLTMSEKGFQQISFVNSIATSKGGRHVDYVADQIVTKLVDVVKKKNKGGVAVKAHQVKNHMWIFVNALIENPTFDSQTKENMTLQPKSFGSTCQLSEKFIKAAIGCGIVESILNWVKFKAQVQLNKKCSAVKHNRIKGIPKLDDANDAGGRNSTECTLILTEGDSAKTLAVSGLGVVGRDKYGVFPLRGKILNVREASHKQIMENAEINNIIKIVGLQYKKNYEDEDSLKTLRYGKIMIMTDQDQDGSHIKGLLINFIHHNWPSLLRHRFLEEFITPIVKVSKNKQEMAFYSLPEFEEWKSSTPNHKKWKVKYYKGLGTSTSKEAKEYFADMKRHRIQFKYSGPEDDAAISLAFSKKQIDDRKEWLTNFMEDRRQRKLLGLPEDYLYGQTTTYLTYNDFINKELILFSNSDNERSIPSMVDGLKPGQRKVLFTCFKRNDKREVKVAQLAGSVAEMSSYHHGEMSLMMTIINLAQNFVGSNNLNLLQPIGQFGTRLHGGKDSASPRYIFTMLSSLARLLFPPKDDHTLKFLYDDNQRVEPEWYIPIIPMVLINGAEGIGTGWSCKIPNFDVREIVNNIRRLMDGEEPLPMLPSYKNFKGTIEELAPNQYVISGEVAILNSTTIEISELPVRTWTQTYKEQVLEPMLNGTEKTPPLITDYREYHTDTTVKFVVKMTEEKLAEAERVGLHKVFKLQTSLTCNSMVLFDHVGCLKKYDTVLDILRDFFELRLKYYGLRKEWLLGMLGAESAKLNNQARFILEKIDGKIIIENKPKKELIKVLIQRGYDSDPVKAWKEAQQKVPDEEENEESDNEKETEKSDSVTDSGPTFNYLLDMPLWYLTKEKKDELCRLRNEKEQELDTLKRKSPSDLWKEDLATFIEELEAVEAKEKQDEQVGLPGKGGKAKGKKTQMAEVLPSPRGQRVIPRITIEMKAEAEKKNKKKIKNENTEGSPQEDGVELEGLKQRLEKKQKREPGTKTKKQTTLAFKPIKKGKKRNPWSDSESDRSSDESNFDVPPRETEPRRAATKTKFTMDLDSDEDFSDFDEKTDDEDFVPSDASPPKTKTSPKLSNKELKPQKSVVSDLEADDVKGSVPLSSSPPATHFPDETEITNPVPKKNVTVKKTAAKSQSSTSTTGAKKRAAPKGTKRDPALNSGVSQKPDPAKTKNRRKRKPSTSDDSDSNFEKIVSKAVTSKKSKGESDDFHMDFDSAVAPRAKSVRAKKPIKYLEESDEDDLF
# Experiment: Inhibition of human topoisomerase-2 assessed as reduction in relaxation of pBR322 plasmid DNA at 10 uM measured after 30 mins by agarose gel electrophoresis
# Conditions: not given
row,Compound,inhibition
1,O=C(O)CN1C(=O)/C(=C/c2ccc3c(c2)c2ccccc2n3Cc2ccc([N+](=O)[O-])cc2)SC1=S,Active

# Target: DNA topoisomerase 2-alpha (Homo sapiens) (UniProt P11388)
# Experiment: Poison activity at human topoisomerase-2 assessed as linear DNA formation by measuring relaxation of supercoiled pBR322 plasmid DNA at 50 uM after 6 mins by agarose gel electrophoresis
# Conditions: not given
row,Compound,Activity
1,O=C(O)CN1C(=O)/C(=C/c2ccc3c(c2)c2ccccc2n3Cc2ccc(C(F)(F)F)cc2)SC1=S,inactive
2,N#Cc1ccc(Cn2c3ccccc3c3cc(/C=C4\SC(=S)N(CC(=O)O)C4=O)ccc32)cc1,inactive

# Test system: HL-60
# Experiment: Cytotoxicity against human HL60 cells after 48 hrs by MTT assay
# Type: functional, cell-based
# Conditions: HL-60, 48 h
row,Compound,IC50 [µM]
1,O=C(O)CN1C(=O)/C(=C/c2ccc3c(c2)c2ccccc2n3Cc2ccc(C(F)(F)F)cc2)SC1=S,0.71
2,O=C(O)CN1C(=O)/C(=C/c2ccc3c(c2)c2ccccc2n3Cc2ccc(F)cc2F)SC1=S,3.84
3,O=C(O)CN1C(=O)/C(=C/c2ccc3c(c2)c2ccccc2n3Cc2ccc(F)c(F)c2)SC1=S,4.17
4,O=C(O)CN1C(=O)/C(=C/c2ccc3c(c2)c2ccccc2n3Cc2ccc(Br)cc2F)SC1=S,3.51
5,O=C(O)CN1C(=O)/C(=C/c2ccc3c(c2)c2ccccc2n3Cc2ccc(F)cc2)SC1=S,8.57
6,O=C(O)CN1C(=O)/C(=C/c2ccc3c(c2)c2ccccc2n3Cc2ccc([N+](=O)[O-])cc2)SC1=S,0.96
7,O=C(O)CN1C(=O)/C(=C/c2ccc3c(c2)c2ccccc2n3Cc2ccc(Cl)cc2)SC1=S,4.86
8,O=C(O)CN1C(=O)/C(=C/c2ccc3c(c2)c2ccccc2n3Cc2ccc(Br)cc2)SC1=S,12.7
9,N#Cc1ccc(Cn2c3ccccc3c3cc(/C=C4\SC(=S)N(CC(=O)O)C4=O)ccc32)cc1,0.43
10,Cc1ccc(Cn2c3ccccc3c3cc(/C=C4\SC(=S)N(CC(=O)O)C4=O)ccc32)cc1,17.8
11,O=C(O)CN1C(=O)/C(=C/c2ccc3c(c2)c2ccccc2n3Cc2cccc(F)c2)SC1=S,8.29
12,O=C(O)CN1C(=O)/C(=C/c2ccc3c(c2)c2ccccc2n3Cc2ccccc2F)SC1=S,1.82
13,O=C(O)CN1C(=O)/C(=C/c2ccc3c(c2)c2ccccc2n3Cc2ccccc2)SC1=S,14.6

# Target: DNA topoisomerase 2-alpha (Homo sapiens) (UniProt P11388)
# Experiment: Inhibition of human topoisomerase-2 assessed as reduction in relaxation of pBR322 plasmid DNA at 20 uM measured after 30 mins by agarose gel electrophoresis
# Conditions: not given
row,Compound,inhibition
1,COc1cc([C@@H]2c3cc4c(cc3[C@@H](O[C@@H]3O[C@@H]5CO[C@@H](C)O[C@H]5[C@H](O)[C@H]3O)[C@H]3COC(=O)[C@H]23)OCO4)cc(OC)c1O [ETOPOSIDE],Active
2,O=C(O)CN1C(=O)/C(=C/c2ccc3c(c2)c2ccccc2n3Cc2ccc(C(F)(F)F)cc2)SC1=S,Active
3,O=C(O)CN1C(=O)/C(=C/c2ccc3c(c2)c2ccccc2n3Cc2ccc(F)cc2F)SC1=S,inactive
4,O=C(O)CN1C(=O)/C(=C/c2ccc3c(c2)c2ccccc2n3Cc2ccc(F)c(F)c2)SC1=S,Active
5,O=C(O)CN1C(=O)/C(=C/c2ccc3c(c2)c2ccccc2n3Cc2ccc(Br)cc2F)SC1=S,Active
6,O=C(O)CN1C(=O)/C(=C/c2ccc3c(c2)c2ccccc2n3Cc2ccc(F)cc2)SC1=S,Active
7,O=C(O)CN1C(=O)/C(=C/c2ccc3c(c2)c2ccccc2n3Cc2ccc([N+](=O)[O-])cc2)SC1=S,Active
8,O=C(O)CN1C(=O)/C(=C/c2ccc3c(c2)c2ccccc2n3Cc2ccc(Cl)cc2)SC1=S,inactive
9,O=C(O)CN1C(=O)/C(=C/c2ccc3c(c2)c2ccccc2n3Cc2ccc(Br)cc2)SC1=S,inactive
10,N#Cc1ccc(Cn2c3ccccc3c3cc(/C=C4\SC(=S)N(CC(=O)O)C4=O)ccc32)cc1,Active
11,Cc1ccc(Cn2c3ccccc3c3cc(/C=C4\SC(=S)N(CC(=O)O)C4=O)ccc32)cc1,inactive
12,O=C(O)CN1C(=O)/C(=C/c2ccc3c(c2)c2ccccc2n3Cc2cccc(F)c2)SC1=S,inactive
13,O=C(O)CN1C(=O)/C(=C/c2ccc3c(c2)c2ccccc2n3Cc2ccccc2F)SC1=S,inactive
14,O=C(O)CN1C(=O)/C(=C/c2ccc3c(c2)c2ccccc2n3Cc2ccccc2)SC1=S,inactive

# Target: DNA topoisomerase 1 (Homo sapiens) (UniProt P11387)
# Sequence (P11387 whole entry, looked up): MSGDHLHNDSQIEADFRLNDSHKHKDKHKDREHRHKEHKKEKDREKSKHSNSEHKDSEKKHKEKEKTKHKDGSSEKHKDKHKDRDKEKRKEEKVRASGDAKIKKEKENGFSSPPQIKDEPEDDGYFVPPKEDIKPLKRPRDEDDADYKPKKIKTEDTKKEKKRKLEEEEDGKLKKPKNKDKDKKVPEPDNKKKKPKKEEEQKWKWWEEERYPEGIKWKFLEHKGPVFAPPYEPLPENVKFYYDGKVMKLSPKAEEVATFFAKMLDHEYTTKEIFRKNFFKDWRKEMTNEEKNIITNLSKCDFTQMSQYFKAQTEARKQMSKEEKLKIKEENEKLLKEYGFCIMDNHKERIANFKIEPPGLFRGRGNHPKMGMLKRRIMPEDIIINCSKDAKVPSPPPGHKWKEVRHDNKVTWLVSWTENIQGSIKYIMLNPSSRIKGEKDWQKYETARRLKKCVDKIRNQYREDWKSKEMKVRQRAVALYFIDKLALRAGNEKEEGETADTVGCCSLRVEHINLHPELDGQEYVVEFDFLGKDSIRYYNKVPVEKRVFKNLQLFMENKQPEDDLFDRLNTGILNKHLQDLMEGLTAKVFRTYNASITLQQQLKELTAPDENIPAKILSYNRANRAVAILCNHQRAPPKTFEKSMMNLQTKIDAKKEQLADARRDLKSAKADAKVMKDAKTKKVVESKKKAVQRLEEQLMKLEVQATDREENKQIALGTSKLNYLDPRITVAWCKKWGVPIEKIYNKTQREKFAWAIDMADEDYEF
# Experiment: Inhibition of human topoisomerase-1 assessed as DNA intercalation by measuring relaxation of supercoiled pBR322 plasmid DNA after 6 mins by agarose gel electrophoresis
# Conditions: not given
row,Compound,inhibition
1,O=C(O)CN1C(=O)/C(=C/c2ccc3c(c2)c2ccccc2n3Cc2ccc(C(F)(F)F)cc2)SC1=S,Dose-dependent effect
2,N#Cc1ccc(Cn2c3ccccc3c3cc(/C=C4\SC(=S)N(CC(=O)O)C4=O)ccc32)cc1,Dose-dependent effect

# Test system: HeLa
# Experiment: Cytotoxicity against human HeLa cells after 48 hrs by MTT assay
# Type: functional, cell-based
# Conditions: not given
row,Compound,IC50 [µM]
1,COc1cc([C@@H]2c3cc4c(cc3[C@@H](O[C@@H]3O[C@@H]5CO[C@@H](C)O[C@H]5[C@H](O)[C@H]3O)[C@H]3COC(=O)[C@H]23)OCO4)cc(OC)c1O [ETOPOSIDE],32
2,O=C(O)CN1C(=O)/C(=C/c2ccc3c(c2)c2ccccc2n3Cc2ccc(C(F)(F)F)cc2)SC1=S,8.2
3,O=C(O)CN1C(=O)/C(=C/c2ccc3c(c2)c2ccccc2n3Cc2ccc(F)cc2F)SC1=S,> 50
4,O=C(O)CN1C(=O)/C(=C/c2ccc3c(c2)c2ccccc2n3Cc2ccc(F)c(F)c2)SC1=S,15.1
5,O=C(O)CN1C(=O)/C(=C/c2ccc3c(c2)c2ccccc2n3Cc2ccc(Br)cc2F)SC1=S,11.7
6,O=C(O)CN1C(=O)/C(=C/c2ccc3c(c2)c2ccccc2n3Cc2ccc(F)cc2)SC1=S,> 50
7,O=C(O)CN1C(=O)/C(=C/c2ccc3c(c2)c2ccccc2n3Cc2ccc([N+](=O)[O-])cc2)SC1=S,7.51
8,O=C(O)CN1C(=O)/C(=C/c2ccc3c(c2)c2ccccc2n3Cc2ccc(Cl)cc2)SC1=S,28.3
9,O=C(O)CN1C(=O)/C(=C/c2ccc3c(c2)c2ccccc2n3Cc2ccc(Br)cc2)SC1=S,> 50
10,N#Cc1ccc(Cn2c3ccccc3c3cc(/C=C4\SC(=S)N(CC(=O)O)C4=O)ccc32)cc1,5.06
11,Cc1ccc(Cn2c3ccccc3c3cc(/C=C4\SC(=S)N(CC(=O)O)C4=O)ccc32)cc1,> 50
12,O=C(O)CN1C(=O)/C(=C/c2ccc3c(c2)c2ccccc2n3Cc2cccc(F)c2)SC1=S,> 50
13,O=C(O)CN1C(=O)/C(=C/c2ccc3c(c2)c2ccccc2n3Cc2ccccc2F)SC1=S,21.3
14,O=C(O)CN1C(=O)/C(=C/c2ccc3c(c2)c2ccccc2n3Cc2ccccc2)SC1=S,> 50

# Target: DNA topoisomerase 2-alpha (Homo sapiens) (UniProt P11388)
# Experiment: Inhibition of human topoisomerase-2 assessed as DNA intercalation by measuring relaxation of supercoiled pBR322 plasmid DNA at 0.3 to 2.5 uM after 6 mins by agarose gel electrophoresis
# Conditions: not given
row,Compound,inhibition
1,CC[n+]1c(-c2ccccc2)c2cc(N)ccc2c2ccc(N)cc21,Active

# Reference: ChEMBL document CHEMBL4184309, “Synthesis and biological evaluation of novel carbazole-rhodanine conjugates as topoisomerase II inhibitors” (Bioorg Med Chem Lett, 2018)
